Species on record: Rattus norvegicus
Experiment: DrugMatrix - Regimen: Daily Repeat
Type: toxicity, organism-based, Sprague-Dawley
Design: regimen Daily Repeat, gender Male, age 6-8 weeks
Conditions: in vivo, po, route oral GAVAGE, vehicle 100 % WATER; for ABSOLUTE BASOPHIL / ABSOLUTE EOSINOPHIL / ABSOLUTE LYMPHOCYTE / ABSOLUTE MONOCYTE / ABSOLUTE SEGMENTED NEUTROPHIL / BASOPHIL / EOSINOPHIL / ERYTHROCYTE COUNT / HEMATOCRIT / HEMOGLOBIN / LEUKOCYTE COUNT / LYMPHOCYTE / MEAN CORPUSCULAR HEMOGLOBIN / MEAN CORPUSCULAR HEMOGLOBIN CONCENTRATION / MEAN CORPUSCULAR VOLUME / MONOCYTE / NEUTROPHIL / NUCLEATED RED BLOOD CELLS / PLATELET COUNT: tissue Blood; for ALANINE AMINOTRANSFERASE / ALBUMIN / ALKALINE PHOSPHATASE / ASPARTATE AMINOTRANSFERASE / BLOOD UREA NITROGEN / CARBON DIOXIDE / CHLORIDE / CHOLESTEROL / CREATINE PHOSPHOKINASE / CREATININE / GLUCOSE / LACTATE DEHYDROGENASE / LIPASE / PHOSPHORUS / POTASSIUM / SODIUM / TOTAL BILIRUBIN / TOTAL PROTEIN / URIC ACID: tissue Plasma
[1] = 0 mg/kg, 72 h, dose level Control, time 3 day
[2] = 0 mg/kg, 120 h, dose level Control, time 5 day
[3] = 5 mg/kg, 72 h, dose level Low, time 3 day

SMILES: COc1cc2nc(N3CCN(C(=O)C4COc5ccccc5O4)CC3)nc(N)c2cc1OC (centres undefined) [DOXAZOSIN]
- ABSOLUTE BASOPHIL [1]: 0 CELLS/uL
- ABSOLUTE EOSINOPHIL [1]: 86.33 CELLS/uL
- ABSOLUTE LYMPHOCYTE [1]: 12090.17 CELLS/uL
- ABSOLUTE MONOCYTE [1]: 166.67 CELLS/uL
- ABSOLUTE SEGMENTED NEUTROPHIL [1]: 1090.17 CELLS/uL
- BASOPHIL [1]: 0%
- EOSINOPHIL [1]: 0.67%
- ERYTHROCYTE COUNT [1]: 5.57 x10E6/uL
- HEMATOCRIT [1]: 35.33%
- HEMOGLOBIN [1]: 13.83 G/DL
- LEUKOCYTE COUNT [1]: 13.43 x10E3/uL
- LYMPHOCYTE [1]: 89.83%
- MEAN CORPUSCULAR HEMOGLOBIN [1]: 24.88 pg
- MEAN CORPUSCULAR HEMOGLOBIN CONCENTRATION [1]: 39.15 G/DL
- MEAN CORPUSCULAR VOLUME [1]: 63.52 fL
- MONOCYTE [1]: 1.17%
- NEUTROPHIL [1]: 8.33%
- NUCLEATED RED BLOOD CELLS [1]: 0 /100WBC
- PLATELET COUNT [1]: 1181.33 x10E3/uL
- ALANINE AMINOTRANSFERASE [1]: 48.33 u/L
- ALBUMIN [1]: 4.1 G/DL
- ALKALINE PHOSPHATASE [1]: 395 u/L
- ASPARTATE AMINOTRANSFERASE [1]: 81.83 u/L
- BLOOD UREA NITROGEN [1]: 15.83 mg/dL
- CARBON DIOXIDE [1]: 24.17 mmol/L
- CHLORIDE [1]: 103.83 MEQ/L
- CHOLESTEROL [1]: 63.67 mg/dL
- CREATINE PHOSPHOKINASE [1]: 372.83 u/L
- CREATININE [1]: 0.18 mg/dL
- GLUCOSE [1]: 173.83 mg/dL
- LACTATE DEHYDROGENASE [1]: 188.33 u/L
- LIPASE [1]: 9.5 u/L
- PHOSPHORUS [1]: 11.95 mg/dL
- POTASSIUM [1]: 5.99 MEQ/L
- SODIUM [1]: 144.43 MEQ/L
- TOTAL BILIRUBIN [1]: 0.15 mg/dL
- TOTAL PROTEIN [1]: 5.95 G/DL
- URIC ACID [1]: 1.82 mg/dL
- ABSOLUTE BASOPHIL [2]: 0 CELLS/uL
- ABSOLUTE EOSINOPHIL [2]: 26.67 CELLS/uL
- ABSOLUTE LYMPHOCYTE [2]: 7583.83 CELLS/uL
- ABSOLUTE MONOCYTE [2]: 131.33 CELLS/uL
- ABSOLUTE SEGMENTED NEUTROPHIL [2]: 674.83 CELLS/uL
- BASOPHIL [2]: 0%
- EOSINOPHIL [2]: 0.33%
- ERYTHROCYTE COUNT [2]: 5.78 x10E6/uL
- HEMATOCRIT [2]: 36.48%
- HEMOGLOBIN [2]: 14.03 G/DL
- LEUKOCYTE COUNT [2]: 8.42 x10E3/uL
- LYMPHOCYTE [2]: 89.83%
- MEAN CORPUSCULAR HEMOGLOBIN [2]: 24.3 pg
- MEAN CORPUSCULAR HEMOGLOBIN CONCENTRATION [2]: 38.52 G/DL
- MEAN CORPUSCULAR VOLUME [2]: 63.15 fL
- MONOCYTE [2]: 1.67%
- NEUTROPHIL [2]: 8.17%
- NUCLEATED RED BLOOD CELLS [2]: 0 /100WBC
- PLATELET COUNT [2]: 1186.67 x10E3/uL
- ALANINE AMINOTRANSFERASE [2]: 50.17 u/L
- ALBUMIN [2]: 4.07 G/DL
- ALKALINE PHOSPHATASE [2]: 367.5 u/L
- ASPARTATE AMINOTRANSFERASE [2]: 81.67 u/L
- BLOOD UREA NITROGEN [2]: 16.17 mg/dL
- CARBON DIOXIDE [2]: 32.33 mmol/L
- CHLORIDE [2]: 101.5 MEQ/L
- CHOLESTEROL [2]: 65.33 mg/dL
- CREATINE PHOSPHOKINASE [2]: 255.33 u/L
- CREATININE [2]: 0.17 mg/dL
- GLUCOSE [2]: 139.33 mg/dL
- LACTATE DEHYDROGENASE [2]: 95 u/L
- LIPASE [2]: 10.5 u/L
- PHOSPHORUS [2]: 10.38 mg/dL
- POTASSIUM [2]: 6.11 MEQ/L
- SODIUM [2]: 145.55 MEQ/L
- TOTAL BILIRUBIN [2]: 0.17 mg/dL
- TOTAL PROTEIN [2]: 5.98 G/DL
- URIC ACID [2]: 0.93 mg/dL
- ABSOLUTE BASOPHIL [3]: 0 CELLS/uL
- ABSOLUTE EOSINOPHIL [3]: 0 CELLS/uL
- ABSOLUTE LYMPHOCYTE [3]: 13989.67 CELLS/uL
- ABSOLUTE MONOCYTE [3]: 387.67 CELLS/uL
- ABSOLUTE SEGMENTED NEUTROPHIL [3]: 2189.33 CELLS/uL
- BASOPHIL [3]: 0%
- EOSINOPHIL [3]: 0%
- ERYTHROCYTE COUNT [3]: 5.22 x10E6/uL
- HEMATOCRIT [3]: 34.5%
- HEMOGLOBIN [3]: 13.43 G/DL
- LEUKOCYTE COUNT [3]: 16.57 x10E3/uL
- LYMPHOCYTE [3]: 84.33%
- MEAN CORPUSCULAR HEMOGLOBIN [3]: 25.77 pg
- MEAN CORPUSCULAR HEMOGLOBIN CONCENTRATION [3]: 38.97 G/DL
- MEAN CORPUSCULAR VOLUME [3]: 66.17 fL
- MONOCYTE [3]: 2.33%
- NEUTROPHIL [3]: 13.33%
- NUCLEATED RED BLOOD CELLS [3]: 0 /100WBC
- PLATELET COUNT [3]: 1263.33 x10E3/uL
- ALANINE AMINOTRANSFERASE [3]: 47.33 u/L
- ALBUMIN [3]: 3.93 G/DL
- ALKALINE PHOSPHATASE [3]: 317.67 u/L
- ASPARTATE AMINOTRANSFERASE [3]: 97 u/L
- BLOOD UREA NITROGEN [3]: 16.33 mg/dL
- CARBON DIOXIDE [3]: 22 mmol/L
- CHLORIDE [3]: 103 MEQ/L
- CHOLESTEROL [3]: 59.67 mg/dL
- CREATINE PHOSPHOKINASE [3]: 763 u/L
- CREATININE [3]: 0.18 mg/dL
- GLUCOSE [3]: 187 mg/dL
- LACTATE DEHYDROGENASE [3]: 544.33 u/L
- LIPASE [3]: 9 u/L
- PHOSPHORUS [3]: 11.9 mg/dL
- POTASSIUM [3]: 5.79 MEQ/L
- SODIUM [3]: 142.7 MEQ/L
- TOTAL BILIRUBIN [3]: 0.17 mg/dL
- TOTAL PROTEIN [3]: 5.73 G/DL
- URIC ACID [3]: 1.7 mg/dL
